Legend:
[1] = tested on: human subjects with type 2 diabetes inadequately controlled with basal insulin and metformin; settings: in vivo
Method: (§2) A 26-week randomised, parallel two-arm, double-blind, multi-centre, multinational, treat-to-target trial in 413 human subjects with type 2 diabetes inadequately controlled with basal insulin and metformin with or without SU or glinides was carried out comparing the efficacy and safety of insulin degludec+liraglutide (Xultophy®, IDegLira) once daily with insulin degludec (Tresiba®, IDeg) once daily both added on to metformin. […] The secondary objective was to compare the overall efficacy and safety parameters of IDegLira and IDeg after 26 weeks of treatment. All trial endpoints were collected and assessed throughout the entire duration of the trial.
(§3) Eligible subjects were randomised 1:1 to either once daily IDegLira or once daily IDeg, both in combination with metformin. […] For each subject, the duration of the trial was to be approximately 29 weeks: up to 2 weeks between screening and first treatment, 26 weeks of treatment and at least 1 week of wash-out at the end of the trial.
(§4) The IDegLira dosing unit is defined as a dose step. One (1) IDegLira dose step consists of 1 unit insulin degludec and 0.036 mg liraglutide. Treatment with IDegLira was initiated at 16 dose steps containing 16 units insulin degludec and 0.6 mg liraglutide. Adjustment of the IDegLira dose was performed twice weekly based on the mean of 3 preceding daily fasting SMPG values on 3 consecutive days. Adjustments occurred in 2 dose steps aiming at a fasting glycaemic target of 4.0-5.0 mmol/L (72-90 mg/dL). The maximum allowed dose was 50 dose steps (50 units IDeg/1.8 mg liraglutide). IDeg treatment was initiated with 16 units, and titrated twice weekly to the fasting glycaemic target of 4.0-5.0 mmol/L (72-90 mg/dL) based on the mean fasting SMPG from 3 proceeding measurements as described for IDegLira. The maximum allowed dose was 50 units.
(§5) Subjects received IDegLira or IDeg by subcutaneous administration in addition to metformin. IDegLira or IDeg was injected subcutaneously in the thigh, upper arm (deltoid region) or abdomen once daily preferably at the same time every day. The injection area chosen were to remain unchanged throughout the trial, but rotation within the area was recommended.

[2] = tested on: adult human subjects with type 2 diabetes at high risk for cardiovascular events; assay: Example 1 cardiovascular outcomes trial (DEVOTE), insulin degludec vs insulin glargine: SMPG and blood pressure variability; assay type: in vivo
Method: (§1) A long-term, multi-centre, multi-national, randomised, double-blind, parallel-group, active comparator-controlled trial with 7637 human subjects was carried out with treatment that would continue until at least 633 positively adjudicated primary cardiovascular events were accrued. This trial concerned incidence of cardiovascular events in adult human subjects with type 2 diabetes that were at high risk for cardiovascular events, including such subjects with existing cardiovascular disease. The primary objective of this trial was to confirm the cardiovascular safety of insulin degludec compared to that of insulin glargine. The secondary objective was to assess efficacy of insulin degludec on markers of glycaemic control and to assess safety on other parameters in subjects with type 2 diabetes that were at high risk for cardiovascular events.
Subjects were randomised 1:1 in a double-blinded manner to receive blinded insulin degludec or blinded insulin glargine, each added to standard of care. […] For subjects receiving premixed/biphasic insulin OD, the basal component was calculated and transferred unit-to-unit to investigational product OD. The bolus insulin component was calculated and transferred unit-to-unit to bolus insulin and given at the most appropriate meal at the investigator's discretion. For subjects receiving premixed/biphasic insulin twice daily (or more), the total basal component was calculated, reduced by 20-30% and transferred to investigational product OD; the bolus component was to be calculated and transferred to insulin aspart and dosed with the most appropriate meals at the investigator's discretion. […]
Subjects adjusted their basal insulin dose weekly, aiming for a pre-breakfast (fasting) SMPG value of 71-90 mg/dL (4.0-5.0 mmol/L) by using the algorithm in Table 6. The basal dose was adjusted based on the lowest of three pre-breakfast SMPG values, preferably measured two days prior to dose adjustment and on the day of the dose adjustment. […]

[3] = tested on: human subjects with type 2 diabetes inadequately controlled with basal insulin and metformin; assay: Example 4: 26-week double-blind trial, IDegLira vs IDeg, both added to metformin
Method: as §2, §3, §4, §5

[4] = tested on: individuals with type 2 diabetes and established cardiovascular risk (MACE); assay: CV risk model based on the DEVOTE trial: MACE hazard ratio IDeg/IGlar by CV risk score and subgroup; assay type: in vivo, human
Method: as §1
The results of this trial may be presented herein as a number or fraction of subjects experiencing an event. Alternatively, the results of this trial may be presented with hazard ratios estimated in a Cox proportional hazard model, which is the standard statistical model used for estimating time to an event. The term “hazard ratio” (also referred to as “HR”) as used herein means the instantaneous risk ratio of experiencing an event when administered insulin degludec compared to insulin glargine which are the two treatments in this trial. An upper limit of the 95% confidence interval (CI) for the HR of less than 1.00 means that the estimated treatment ratio between insulin degludec and insulin glargine with respect to the event of interests is statistically significant in favour of insulin degludec on a 5% significance level. A 5% significance level is the standard level for investigating significance in clinical trials.
Based on the DEVOTE trial, a cardiovascular (CV) risk score has been developed for individuals with established cardiovascular risk. This risk score was developed using available medical history, baseline information and cardiovascular events occurring during the trial. […] The variables are listed in descending order according to their impact on the overall risk of major adverse cardiovascular events (MACE), here consisting of cardiovascular death, non-fatal myocardial infarction, or non-fatal stroke. The combination of these variables yields an algorithm that can be used to determine the risk of future MACEs and to determine the benefit of being treated with IDeg compared to IGlar.
The CV risk score and estimated MACE hazard ratio for CV risk scores by quartiles based on number of events are presented in FIG. 1. […] This benefit is seen regardless of which of the individual predictors contribute to the high score.
For example, subjects with a BMI ≥30 kg/m^2 and diastolic blood pressure ≥80 mmHg, and subjects with a diastolic blood pressure ≥80 mmHg who were treated with statins would have a benefit with IDeg compared to IGlar in terms of risk of MACE (Table 25).

## N^εB29-(N^α-(HOOC(CH2)14CO)-γ-Glu) desB30 human insulin [IDeg]
[1]
  Adverse event and tolerability profiles: consistent with previous findings
  ΔHeart rate: −0.6 bpm
[2]
  Systolic Blood Pressure variability, Rate: 0.94
[2]; relative fluctuation of 8-point profile, log scale ANOVA
  8PP SMPG - Within-day variability, Rate: 0.98
[2]; variances analysed on log scale, ANOVA
  Pre-breakfast SMPG - between-day variability, Rate: 0.90
[3]; Baseline
  Free fatty acids: 0.5 mmol/L
  HDL cholesterol: 1.2 mmol/L
  LDL cholesterol: 2.4 mmol/L
  Total cholesterol: 4.6 mmol/L
  Triglycerides: 1.8 mmol/L
  VLDL cholesterol: 0.8 mmol/L
[3]; End of trial (26 weeks)
  Free fatty acids: 0.4 mmol/L
  HDL cholesterol: 1.2 mmol/L
  LDL cholesterol: 2.4 mmol/L
  Total cholesterol: 4.5 mmol/L
  Triglycerides: 1.6 mmol/L
  VLDL cholesterol: 0.7 mmol/L
[3]; change from baseline, 26 weeks
  ΔDiastolic blood pressure: −0.7 mmHG
  ΔSystolic blood pressure: −1.7 mmHG
[4]; CV risk score High
  HR (MACE, IDeg/IGlar): 1.04
[4]; CV risk score Low
  HR (MACE, IDeg/IGlar): 1.02
[4]; CV risk score Moderate
  HR (MACE, IDeg/IGlar): 0.89
[4]; CV risk score Very High
  HR (MACE, IDeg/IGlar): 0.67
[4]; patients who have a high CV risk score
  hazard ratio IDeg/IGlar (risk of MACE): < 1
[4]; subgroup: Age 65-75 years AND systolic blood pressure < 140 mmHg
  Estimate (risk of MACE, IDeg compared to IGlar): 0.70
[4]; subgroup: Age < 65 years AND diastolic blood pressure ≥ 80 mmHg
  Estimate (risk of MACE, IDeg compared to IGlar): 0.64
[4]; subgroup: Age < 65 years AND treated with statins
  Estimate (risk of MACE, IDeg compared to IGlar): 0.75
[4]; subgroup: BMI ≥ 30 kg/m^2 AND diastolic blood pressure ≥ 80 mmHg
  Estimate (risk of MACE, IDeg compared to IGlar): 0.68
[4]; subgroup: Diastolic blood pressure < 90 mmHg AND HDL ≥ 1.0 mmol/L
  Estimate (risk of MACE, IDeg compared to IGlar): 0.80
[4]; subgroup: Diastolic blood pressure ≥ 80 mmHg AND treated with statins
  Estimate (risk of MACE, IDeg compared to IGlar): 0.73
[4]; subgroup: Diastolic blood pressure ≥ 80 mmHg AND triglycerides > 1.7 mmol/L
  Estimate (risk of MACE, IDeg compared to IGlar): 0.69
[4]; subgroup: Established CV risk AND HDL ≥ 1.0 mmol/L
  Estimate (risk of MACE, IDeg compared to IGlar): 0.78
[4]; subgroup: Established CV risk AND diastolic blood pressure ≥ 80 mmHg
  Estimate (risk of MACE, IDeg compared to IGlar): 0.76
[4]; subgroup: Established CV risk AND pulse ≥ 70 bpm
  Estimate (risk of MACE, IDeg compared to IGlar): 0.80
[4]; subgroup: Height <170 cm AND treated with statins
  Estimate (risk of MACE, IDeg compared to IGlar): 0.75
[4]; subgroup: Non-White AND diastolic blood pressure < 90 mmHg
  Estimate (risk of MACE, IDeg compared to IGlar): 0.64
[4]; subgroup: Not Hispanic or Latino AND Non-White
  Estimate (risk of MACE, IDeg compared to IGlar): 0.64
[4]; subgroup: Not Hispanic or Latino AND triglycerides > 1.7 mmol/L
  Estimate (risk of MACE, IDeg compared to IGlar): 0.79
[4]; subgroup: Previous smoker AND age < 65 years
  Estimate (risk of MACE, IDeg compared to IGlar): 0.73
[4]; subgroup: Previous smoker AND cholesterol ≥ 3 mmol/L
  Estimate (risk of MACE, IDeg compared to IGlar): 0.79
[4]; subgroup: Previous smoker AND diastolic blood pressure ≥ 80 mmHg
  Estimate (risk of MACE, IDeg compared to IGlar): 0.66
[4]; subgroup: Previous smoker AND treated with statins
  Estimate (risk of MACE, IDeg compared to IGlar): 0.79
[4]; subgroup: Previous smoker AND triglycerides > 1.7 mmol/L
  Estimate (risk of MACE, IDeg compared to IGlar): 0.73
[4]; subgroup: Pulse ≥ 70 bpm AND diastolic blood pressure ≥ 80 mmHg
  Estimate (risk of MACE, IDeg compared to IGlar): 0.74
[4]; subgroup: Pulse ≥ 70 bpm AND triglycerides > 1.7 mmol/L
  Estimate (risk of MACE, IDeg compared to IGlar): 0.76
[4]; subgroup: Pulse ≥ 70 mmHg AND treated with statins
  Estimate (risk of MACE, IDeg compared to IGlar): 0.72
[4]; subgroup: Systolic blood pressure <140 mmHg AND HDL ≥ 1.0 mmol/L
  Estimate (risk of MACE, IDeg compared to IGlar): 0.73
[4]; subgroup: Triglycerides > 1.7 mmol/L AND HDL ≥ 1.0 mmol/L
  Estimate (risk of MACE, IDeg compared to IGlar): 0.69
[4]; subgroup: Triglycerides > 1.7 mmol/L AND treated with statins
  Estimate (risk of MACE, IDeg compared to IGlar): 0.78

Source: US11673933B2, “Method for using insulin degludec for the improvement of glycemic control and reduction of acute and long-term diabetes complications” (Novo Nordisk A/S, priority 2016, dated 2023)
